Experimental data from patent US20250276960A1, “CRYSTALLINE FORMS OF (R)-6-CHLORO-3-((1-(2-CYANO-7-METHYL-3-MORPHOLINOQUINOXALIN-5-YL)ETHYL)AMINO)PICOLINIC ACID” (MIRATI THERAPEUTICS, INC., priority 2024, published 2025).
Values after ≈ are worked out from the molar mass of the structure shown.

Columns and labels:
[1] = test system: phospho-AKT (pAKT) in T47D (H1047R) cells; assay: pAKT alphaLISA Surefire Ultra AKT 1/2/3 (pS473) assay in T47D cells; format: cell-based; conditions: Homo sapiens, 24 hr treatment
Procedure: (§1) The ability of a Compound 1 to inhibit the formation of pAKT was measured using alphaLISA Surefire Ultra AKT 1/2/3 (pS473) Assay Kit (#ALSU-PAKT-B50K) was obtained from Perkin Elmer (Waltham, MA). The ability of Compound 1 to decrease the viability of cells was measured using CellTiter-Glo 2.0 (CTG) Luminescent Cell Viability Assay (#G9241) obtained from Promega (Madison, WI).
To prepare assay plates for pAKT alphaLISA assays, cells were trypsinized, resuspended in fresh media, and viable cells were counted utilizing trypan blue exclusion. Prior to seeding, cells were washed with PBS and resuspended in HBSS (Gibco, #14025092). […]
Immediately after seeding, cells were dosed using an Echo Liquid Handler (Beckman Coulter) with compounds at a 10.4 μm starting concentration and serially diluted (1:4) for a total of 10concentrations. […] Plates were then imaged the following day using a CLARIOstar microplate reader (BMG Labtech, Germany).
Percent of control values were calculated by subtracting the average signal from the positive control (alpelisib) treated wells from all treated wells (including DMSO control wells) and then divided by the average signal from the vehicle DMSO treated control wells. Percent of vehicle control values were plotted as log (inhibitor) vs. response-Variable slope (four parameters) for curve fitting and IC50 values were determined using XLfit.

[2] = test system: T47D (H1047R mutant) cells; assay: CellTiter-Glo 2.0 cell viability assay, T47D; format: cell-based; conditions: Homo sapiens, 72 hours, CTG
Procedure: as §1
To prepare assay plates for viability assays, cells were trypsinized, resuspended in fresh media, and viable cells were counted utilizing trypan blue exclusion. […]
Assay day 1, cells were dosed using an Echo Liquid Handler (Beckman Coulter) with compounds at a 10 μm starting concentration and serially diluted (1:4) for a total of 10concentrations. […] After 72 hours of treatment, cell plates were equilibrated to room temperature before adding 15 μl of CTG to each well, plates were then covered in aluminum foil to protect from light, incubated at room temperature for 30 minutes on a microtiter plate shaker, and luminescence readings were collected using a CLARIOstar microplate reader (BMG Labtech, Germany). Percent of vehicle control values were plotted as log (inhibitor) vs. response-Variable slope (four parameters) for curve fitting and IC50 values were determined using XLfit.

[3] = Solubility of amorphous solids of Compound 1 in single solvents at room temperature; format: physicochemical
Procedure: The amorphous solids of Compound 1 as prepared in Example 1 was measured in 20 single solvents at room temperature and crystallization screening was then conducted in the same set of solvents. For each solvent tested, a slurry of the amorphous solids and the solvent was prepared with a […] and the amorphous solids were allowed to dissolve. The slurry was then agitated with a stir bar for approximately 1 hour at room temperature. The wet solids were then analyzed by powder X-ray diffraction (PXRD). The solids were collected and dried under vacuum for 1 day and the crystalline form was confirmed by PXRD. Only one crystalline form was obtained and designated as Form 1.

[4] = Dynamic vapor sorption (DVS) of crystalline form; format: physicochemical; conditions: crystalline form (Form 1)
Procedure: (§2) The crystalline form of Compound 1 is highly crystalline and has a needle/thin rod-like morphology. FIG. 2A and 2B are polarized light microscopy (PLM) images of this crystalline form of Compound 1. Additionally, the crystalline form of Compound 1 was characterized by PXRD, DSC, TGA, ^1H-NMR, HPLC, and DVS. The solvent used for the ^1H-NMR was methanol.
(§3) The crystalline form has a high melting temperature (˜177-180° C.) with no thermal degradation until >210° C. The crystalline form appears to be an anhydrous form and is non-hygroscopic. The crystalline form was analyzed by PXRD before and after DVS.

[5] = Thermal stability (DSC/TGA) of crystalline form; format: physicochemical; conditions: crystalline form (Form 1)
Procedure: as §2, §3

Compound `Cc1cc([C@@H](C)Nc2ccc(Cl)nc2C(=O)O)c2nc(N3CCOCC3)c(C#N)nc2c1` [Compound 1, (R)-6-chloro-3-((1-(2-cyano-7-methyl-3-morpholinoquinoxalin-5-yl)ethyl)amino) picolinic acid] has an IC50 [1] of 1.8 nM, an IC50 [2] of 24 nM and a solubility ([3]; organic solvent or mixture, thermodynamic from solid, 1,4-Dioxane) of over 221 mg/mL. For the same compound, the solubility ([3]; organic solvent or mixture, thermodynamic from solid, 2-MeTHF) was over 230 mg/mL, the solubility ([3]; organic solvent or mixture, thermodynamic from solid, ACN) was over 202 mg/mL and the solubility ([3]; organic solvent or mixture, thermodynamic from solid, DCM) was over 192 mg/mL. It also gave a solubility ([3]; organic solvent or mixture, thermodynamic from solid, DMF) of over 216 mg/mL, a solubility ([3]; organic solvent or mixture, thermodynamic from solid, DMSO) of over 241 mg/mL and a solubility ([3]; organic solvent or mixture, thermodynamic from solid, EtOAc) of over 204 mg/mL. It also gave a solubility ([3]; organic solvent or mixture, thermodynamic from solid, EtOH) of 43 to 53.7 mg/mL (≈ 94.9 to 119 mM), a solubility ([3]; organic solvent or mixture, thermodynamic from solid, IPA) of 14.4 to 16.8 mg/mL (≈ 31.8 to 37.1 mM) and a solubility ([3]; organic solvent or mixture, thermodynamic from solid, IPAc) of over 221 mg/mL. The solubility ([3]; organic solvent or mixture, thermodynamic from solid, MEK) was over 191 mg/mL, the solubility ([3]; organic solvent or mixture, thermodynamic from solid, MIBK) was over 189 mg/mL and the solubility ([3]; organic solvent or mixture, thermodynamic from solid, MTBE) was 102 to 221 mg/mL (≈ 226 to 488 mM). The solubility ([3]; organic solvent or mixture, thermodynamic from solid, MeOH) was over 210 mg/mL, the solubility ([3]; organic solvent or mixture, thermodynamic from solid, THF) was over 215 mg/mL and the solubility ([3]; organic solvent or mixture, thermodynamic from solid, acetone) was over 230 mg/mL. It also gave a solubility ([3]; organic solvent or mixture, thermodynamic from solid, heptane) of under 1.3 mg/mL, a solubility ([3]; organic solvent or mixture, thermodynamic from solid, nPA) of 47.1 to 58.9 mg/mL (≈ 104 to 130 mM) and a solubility ([3]; organic solvent or mixture, thermodynamic from solid, toluene) of over 204 mg/mL. The solubility ([3]; thermodynamic from solid, water) was under 1.3 mg/mL, the “Form change by PXRD before and after DVS” value [4] was “no form change” and the “Hygroscopicity (DVS)” value [4] was “non-hygroscopic”. For the same compound, the “DVS weight gain at 80% RH” value ([4]; 80% RH) was 0.11% and the “Temperature until which no thermal degradation” value [5] was over 210 °C.
